The source of these data is ChEMBL document CHEMBL4725344, “Development of Highly Potent Carbazole Amphiphiles as Membrane-Targeting Antimicrobials for Treating Gram-Positive Bacterial Infections” (J Med Chem, 2020).

Data set [1] can be described thus: Selectivity ratio of MIC for Staphylococcus aureus ATCC 29213 to MIC for Bacillus subtilis CMCC 63501. It is filed as functional.
A short description of data set [2]: Selectivity ratio of MIC for methicillin-resistant Staphylococcus aureus NCTC 10442 to MIC for Bacillus subtilis ATCC 6633. It is filed as functional.
Data set [3] deals with Staphylococcus aureus. Description: Antibacterial activity against methicillin-resistant Staphylococcus aureus N315 measured after 24 hrs by microplate reader analysis. Type of data set: functional.
Data set [4] in a line: Selectivity ratio of MIC for methicillin-resistant Staphylococcus aureus NCTC 10442 to MIC for Staphylococcus epidermidis CMCC 26069. Type of data set: functional.
The nature of data set [5]: Selectivity ratio of MIC for Staphylococcus aureus ATCC 29213 to MIC for Bacillus subtilis ATCC 6633. Type of data set: functional.
Another data set deals with Bacillus subtilis. Description: Antibacterial activity against Bacillus subtilis CMCC 63501 measured after 24 hrs by microplate reader analysis. It is filed as functional.
Data set [6] in a line: Selectivity ratio of MIC for methicillin-resistant Staphylococcus aureus NCTC 10442 to MIC for Staphylococcus epidermidis ATCC 12228. It is filed as functional.
The nature of data set [7]: Hemolytic activity in rabbit erythrocytes measured after 1 hr by microplate reader analysis. Type of data set: ADME, cell-based, Oryctolagus cuniculus, Erythrocyte.
Data set [8] is described as follows: Selectivity ratio of MIC for methicillin-resistant Staphylococcus aureus N315 to MIC for Bacillus subtilis ATCC 6633. It is filed as functional.
The nature of data set [9]: Selectivity ratio of MIC for methicillin-resistant Staphylococcus aureus N315 to MIC for Bacillus subtilis CMCC 63501. It is filed as functional.
A further data set deals with Bacillus spizizenii. Description: Antibacterial activity against Bacillus subtilis ATCC 6633 measured after 24 hrs by microplate reader analysis. It is filed as functional.
Data set [10] concerns Staphylococcus epidermidis. Description: Antibacterial activity against Staphylococcus epidermidis ATCC 12228 measured after 24 hrs by microplate reader analysis. It is filed as functional.
Data set [11] can be described thus: Selectivity ratio of MIC for Staphylococcus aureus ATCC 29213 to MIC for Staphylococcus epidermidis CMCC 26069. It is filed as functional.
The test system of data set [12] is Staphylococcus aureus. Nature of the data set: Antibacterial activity against Staphylococcus aureus ATCC 29213 measured after 24 hrs by microplate reader analysis. Type of data set: functional.
Data set [13] is described as follows: Selectivity ratio of MIC for Staphylococcus aureus ATCC 29213 to MIC for Staphylococcus epidermidis ATCC 12228. It is filed as functional.
For data set [14], the system named is Staphylococcus aureus. Description: Antibacterial activity against methicillin-resistant Staphylococcus aureus NCTC 10442 measured after 24 hrs by microplate reader analysis. Type of data set: functional.
Data set [15] can be described thus: Selectivity ratio of MIC for methicillin-resistant Staphylococcus aureus N315 to MIC for Staphylococcus epidermidis CMCC 26069. It is filed as functional.
Data set [16] in a line: Selectivity ratio of MIC for methicillin-resistant Staphylococcus aureus N315 to MIC for Staphylococcus epidermidis ATCC 12228. It is filed as functional.
Data set [17] in a line: Selectivity ratio of MIC for methicillin-resistant Staphylococcus aureus NCTC 10442 to MIC for Bacillus subtilis CMCC 63501. It is filed as functional.
The test system of data set [18] is Staphylococcus epidermidis. Nature of the data set: Antibacterial activity against Staphylococcus epidermidis CMCC 26069 measured after 24 hrs by microplate reader analysis. Type of data set: functional.

The structures appear in SMILES notation. Converted amounts (≈) assume the structure as drawn.

As for `CC(C)=CCn1c2ccccc2c2c(OCC(O)CNC(=O)[C@@H](N)CCCNC(=N)N)cccc21` (stereo not given in full), the Selectivity ratio in data set [1], in [2], in data set [4], in data set [5], in data set [6] and in data set [8] was 2 each time. The Selectivity ratio in data set [9], in data set [11], in [13], in data set [15], in data set [16] and in data set [17] was 2 throughout. Further, the minimal inhibitory concentration (MIC) with Staphylococcus aureus [3] was found to be 6.25 µg/mL (≈ 13 µM); against Bacillus subtilis, 3.12 µg/mL (≈ 6.5 µM); with Bacillus spizizenii, 3.12 µg/mL (≈ 6.5 µM); in data set [10] it was 3.12 µg/mL (≈ 6.5 µM); with Staphylococcus aureus [12] it was 6.25 µg/mL (≈ 13 µM); in the data set with Staphylococcus aureus [14], 6.25 µg/mL (≈ 13 µM). The molecule also showed an MIC in data set [18] of 3.12 µg/mL (≈ 6.5 µM). Further, in data set [7], the HC50 at 1 h is above 200 µg/mL.

As to `CC(C)=CCn1c2ccccc2c2c(OCC(O)CNC(=O)[C@@H](N)CCCCN)cccc21` (stereo not given in full), the Selectivity ratio in data set [1], in data set [2], in data set [4], in data set [5], in data set [6] and in [8] was 2 each time. The Selectivity ratio in data set [9], in data set [11], in data set [13], in data set [15], in data set [16] and in data set [17] was 2 throughout. For the same molecule, the minimum inhibitory concentration (MIC) with Staphylococcus aureus [3] came out at 12.5 µg/mL (≈ 27.6 µM); in the data set on Bacillus subtilis it was 6.25 µg/mL (≈ 13.8 µM); against Bacillus spizizenii, 6.25 µg/mL (≈ 13.8 µM); in data set [10], 6.25 µg/mL (≈ 13.8 µM); in the data set on Staphylococcus aureus [12], 25 µg/mL (≈ 55.2 µM); with Staphylococcus aureus [14], 25 µg/mL (≈ 55.2 µM). Also, the minimal inhibitory concentration (MIC) in [18] was 6.25 µg/mL (≈ 13.8 µM). This molecule registered an HC50 at 1 h in data set [7] above 200 µg/mL.

Usually MIC stands for the smallest concentration in the dilution series that meets the test's criterion for growth inhibition. The low end stands for inhibition by little substance, the high end for a need for much substance. As a reminder, the HC50 is the concentration that lyses half of the red blood cells. Low values mean stronger haemolysis, high ones weaker haemolysis.
